{
  "source": "patent US11760716B2",
  "about": "“Drug crystallization under microgravity conditions” (SPACEPHARMA R&D ISRAEL LTD., priority 2018, dated 2023)",
  "key": {"[1]": {"experiment": "Highest concentration of vilanterol dissolvable in ethanol at 37° C.", "type": "physicochemical", "settings": "ethanol as the solvent", "method": "In order to obtain optimal results in space, adjustment of the Vilanterol crystallization protocol to fit the system of the invention, and vice versa, was required. The original main compartment volume ranged between 0.1 to 1 ml. To maximize the amount of drug used in the experiment, and still meet the safety limitation approved by NASA, the main compartment (2) size was increased to 2 ml. The vilanterol concentration was adjusted according to the maximum temperature in which the payload could be stored on the ISS (37° C.)."}, "[2]": {"experiment": "Crystal width from scanning electron microscope micrographs (FIG. 3)", "type": "physicochemical", "method": "Gradual cooling of the vilanterol ethanolic solution (25 mg/ml) in rubber container (4), placed in one storage compartment (3), was carried out by reducing the temperature from 37° C. to 4° C. by storing the container in a refrigerator inside the ISS until the return to Earth. The results obtained upon return to Earth show the vilanterol space grown crystals in rubber container (4).\nVilanterol (250 mg) was dissolved in 10 ml ethanol to result in a vilanterol solution having a final concentration of 25 mg/ml. Main compartment (2) of cassette (1) (FIG. 1A) was filled with 2 ml of the prepared vilanterol/ethanol solution. In addition, one rubber container (4), placed in one storage compartment (3), was filled with 1 ml heptane (anti-solvent). Cassette (1) was kept at 37° C.\nAfter 10 days from launch into space, one plunger was released thereby activating one rubber container (4) in one storage compartment (3), allowing 1 ml of heptane to flow into main compartment (2), which, as mentioned above, comprises the vilanterol/ethanol solution. […]\nThe experiments performed in space on board of the ISS yielded crystals that were substantially larger and of higher crystalline order compared to their Earth-grown equivalents. […] The quantity of material manufactured in orbit was sufficient for complete characterization study and further processing tests. […]"}},
  "data": [
    {"smiles": "OCc1cc([C@@H](O)CNCCCCCCOCCOCc2c(Cl)cccc2Cl)ccc1O", "note": "[vilanterol, 4-{(1R)-2-[(6-{2-[(2,6-dichlorobenzyl)oxy]ethoxy}hexyl)amino]-1-hydroxyethyl}-2-(hydroxymethyl)phenol]", "values": [
      {"measurement": "highest concentration of vilanterol that could be dissolved", "setting": "[1]", "value": 2.5, "unit": "% w/v"},
      {"measurement": "width of crystals", "setting": "[2]; crystals crystalized in space under microgravity (FIG. 3, right hand panel)", "value": "10-20 microns"},
      {"measurement": "width of crystals", "setting": "[2]; crystals crystalized on Earth, 1 g (FIG. 3, left hand panel)", "value": "a few"}
    ]}
  ]
}
